One assay is described as follows: DPPH radical scavenging. To be noted: compounds 0.1 mM, DPPH 0.1 mM in ethanol. As to the method: Antioxidant compounds able to neutralize DPPH radicals are increasingly recognized due to their capability of combating cancer, slowing down the aging process and regulating inflammation. As a result, they could potentially offer protection against rheumatoid arthritis and inflammation. […] In this experiment, NDGA and BHT were used as reference compounds and measurements took place at 30 min and 60 min. […] Such low scavenging activity of DPPH radicals is rather common for metal–NSAID complexes.
(§1) S1 Antioxidant activity assay
(§2) The antioxidant activity of the compound was evaluated via the ability to scavenge in vitro free radicals such as DPPH and ABTS and to reduce H2O2. All the experiments were carried out at least in triplicate and the standard deviation of absorbance was less than 10% […]
S1.1 Determination of the reducing activity of the radical DPPH
To an ethanolic solution of DPPH (0.1 mM) an equal volume solution of the compounds (0.1 mM) in ethanol was added. Absolute ethanol was also used as control solution. The absorbance at 517 nm was recorded at room temperature after 30 and 60 min in order to examine the possible existence of a potential time−dependence of the DPPH radical scavenging activity.[1] The DPPH−scavenging activity of the compounds was expressed as the percentage reduction of the absorbance values of the initial DPPH solution (DPPH%). NDGA and BHT were used as reference compounds. […]
A general note: The DPPH test is a chemical assay of radical scavenging.

Assay [1] is described as follows: ABTS radical cation scavenging. Particulars: compounds 0.1 mM; absorbance 734 nm after 1 min. On the procedure: The ABTS-scavenging was measured through the discoloration of a dark green solution containing the cationic radical ABTS^•+, which was induced from the oxidation derived from hydrogen-donating antioxidants, either complexes or standards, and is often considered a marker of total oxidation capacity. […] Such an increase in activity upon coordination is expected for metal–NSAID complexes.
as §1, §2
S1.2 Assay of radical cation ABTS−scavenging activity
The ABTS assay was performed to determine the activity of the compounds to scavenge the radical cation ABTS. Initially, a water solution of ABTS was prepared (2 mM).
ABTS radical cation (ABTS+·) was produced by the reaction of ABTS stock solution with potassium persulfate (0.17 mM) and the mixture was stored in the dark at room temperature for 12−16 h before its use. The ABTS was oxidized incompletely because the stoichiometric reaction ratio of ABTS and potassium persulfate is 1:0.5. The absorbance became maximal and stable only after more than 6 h of reaction although the oxidation of the ABTS started immediately. The radical was stable in this form for more than 2 days when allowed to stand in the dark at room temperature. Afterwards, the ABTS+· solution was diluted in ethanol to an absorbance of 0.70 at 734 nm and 10 μL of diluted compounds or standards (0.1 mM) in DMSO were added. The absorbance was recorded out exactly 1 min after initial mixing.
The ABTS–radical scavenging activity of the compounds was expressed as the percentage inhibition of the absorbance of the initial ABTS solution (ABTS%). […]

For another assay, the system named is CT DNA. Kind of assay: Interaction with CT DNA by UV-vis spectroscopy. To be noted: for percentage of the observed hyper-/hypochromism (ΔA/A0, %) / blue-/red-shift in λmax (Δλ, nm): upon addition of CT DNA; for DNA-binding constant Kb: Wolfe–Shimer equation. The class given is binding, calf. On the procedure:
UV-vis spectroscopy was employed to determine the interaction mode of the compounds (4′–NO2–fenH and its complexes 1–4) with DNA and calculate the DNA-binding constant (Kb). For this reason, the UV-vis spectra of the compounds (2 × 10^−5–10^−4 Μ) were recorded in the presence of incremental additions of CT DNA solution (Figure S4), and the changes (in absorbance and wavelength) of the initial bands were monitored. […] However, a definite conclusion cannot be reached from such spectroscopic data, but the interaction mode could be further corroborated by viscosity measurements.
The Kb values of the compounds were calculated with the Wolfe–Shimer equation (Equation (S1)) and the corresponding plots of [DNA]/(εA–εF) vs. [DNA] (Figure S5).
S3 Binding studies with CT DNA
In order to study the interaction of the compounds with DNA, the compound was initially dissolved in DMSO (1 mM). Mixing of such solutions with the aqueous buffer solutions of DNA used in the studies never exceeded 5% DMSO (v/v) in the final solution, which was needed due to low aqueous solubility of most compounds. In all experiments, the effect of DMSO on the data has been taken into consideration and the appropriate corrections have been performed. The interaction of the compound with CT DNA was monitored by UV−vis spectroscopy, and viscosity measurements, and via competitive studies with EB by fluorescence emission spectroscopy.
S3.1 Binding study with CT DNA by UV−vis spectroscopy
The interaction of the compound with CT DNA has been studied by UV−vis spectroscopy in order to investigate the possible binding mode to CT DNA and to calculate the DNA−binding constant (Kb). of the compounds Kb (in M−1) was determined with the Wolfe−Shimer equation (equation S1) and the plots [DNA]/(εA−εf) versus [DNA] using the UV−vis spectra of the compound (25–100 μM) recorded for a constant concentration with increasing amounts of CT DNA for diverse [compound]/[DNA] mixing ratios (= r).
According to the Wolfe−Shimer equation:
[DNA] = [DNA] + 1 (equation S1)
(εA−εf) (εb−εf) Kb(εb−εf) where [DNA] is the concentration of DNA in base pairs, εA = Aobsd/[compound], εf = the extinction coefficient for the free compound and εb = the extinction coefficient for the compound in the fully bound form. Kb is given by the ratio of slope to the y intercept in plots [DNA]/(εA−εf) versus [DNA]. […]

[2] abbreviates: UV band at λmax 391–421 nm, + hyperchromism, − hypochromism.
Where [3] appears, read: UV band at λmax 391–421 nm, + red-shift, − blue-shift.

Take `O=C(O)c1ccccc1Nc1ccc([N+](=O)[O-])cc1` [4′–NO2–fenH, 4′–nitrofenamic acid]: in the assay “DPPH radical scavenging”, the “%DPPH-scavenging ability (DPPH%), 30 min” value is “Not active” and the “%DPPH-scavenging ability (DPPH%), 60 min” value was “Not active”. Further, the “%ABTS radical scavenging activity (ABTS%)” value in assay [1] was “Not active”. For the same compound, the “percentage of the observed hyper-/hypochromism (ΔA/A0, %)” value (“percentage … (ΔA/A0, %)” for short) with CT DNA (setting [2]) is −12%. In addition, the “blue-/red-shift in λmax (Δλ, nm)” value in the assay with CT DNA (setting [3]) was “+20 nm”. The “DNA-binding constant Kb” value at CT DNA (listed as 4′–NO2–fenamic acid) was 1.62e+06 M⁻¹.

On to `CO.CO.CO.CO.O=C([O-])c1ccccc1Nc1ccc([N+](=O)[O-])cc1.O=C([O-])c1ccccc1Nc1ccc([N+](=O)[O-])cc1.[Co+2]` [Complex 1, [Co(4′–NO2–fen)2(MeOH)4]], for which, in the assay “DPPH radical scavenging”, the “%DPPH-scavenging ability (DPPH%), 30 min” value was “Not active” and the “%DPPH-scavenging ability (DPPH%), 60 min” value is recorded as “Not active”. Also, the “%ABTS radical scavenging activity (ABTS%)” value in assay [1] amounted to 24.68 ± 0.35%. For the same compound, in the assay with CT DNA (setting [2]), the “percentage … (ΔA/A0, %)” value is −10%. For the same compound, in the assay on CT DNA (setting [3]), the “blue-/red-shift in λmax (Δλ, nm)” value is recorded as 0 nm.

As to `O=C([O-])c1ccccc1Nc1ccc([N+](=O)[O-])cc1.O=C([O-])c1ccccc1Nc1ccc([N+](=O)[O-])cc1.[Co+2].c1ccc(Nc2ccccn2)nc1` [Complex 2, [Co(4′–NO2–fen)2(bipyam)]], in the assay “DPPH radical scavenging”, the “%DPPH-scavenging ability (DPPH%), 30 min” value is given as “Not active” and the “%DPPH-scavenging ability (DPPH%), 60 min” value was “Not active”. For the same compound, the “%ABTS radical scavenging activity (ABTS%)” value in assay [1] worked out at 43.65 ± 0.37%. Besides, in the assay on CT DNA (UV band at λmax 321 nm), the “blue-/red-shift in λmax (Δλ, nm)” value was −0.5 nm and the “percentage … (ΔA/A0, %)” value was “+4%”. Besides, the “percentage … (ΔA/A0, %)” value with CT DNA (setting [2]) was −10%. Also, the “blue-/red-shift in λmax (Δλ, nm)” value in the assay on CT DNA (setting [3]) is on record as 0 nm.

For `O=C([O-])c1ccccc1Nc1ccc([N+](=O)[O-])cc1.O=C([O-])c1ccccc1Nc1ccc([N+](=O)[O-])cc1.[Co+2].c1cnc2c(c1)ccc1cccnc12` [Complex 3, [Co(4′–NO2–fen)2(phen)]], in “DPPH radical scavenging”, the “%DPPH-scavenging ability (DPPH%), 30 min” value is given as “Not active” and the “%DPPH-scavenging ability (DPPH%), 60 min” value is “Not active”. Besides, the “%ABTS radical scavenging activity (ABTS%)” value in assay [1] came out at 48.12 ± 0.88%. The “percentage … (ΔA/A0, %)” value in the assay on CT DNA (setting [2]) is recorded as −2.5%. Also, the “blue-/red-shift in λmax (Δλ, nm)” value with CT DNA (setting [3]) is recorded as “+0.5 nm”.

For `C[O-].C[O-].Cc1ccc2ccc3ccc(C)nc3c2n1.Cc1ccc2ccc3ccc(C)nc3c2n1.O=C([O-])c1ccccc1Nc1ccc([N+](=O)[O-])cc1.O=C([O-])c1ccccc1Nc1ccc([N+](=O)[O-])cc1.[Co+2].[Co+2]` [Complex 4, [Co2(4′–NO2–fen)2(μ–CH3O)2(neoc)2]], in the assay “DPPH radical scavenging”, the “%DPPH-scavenging ability (DPPH%), 30 min” value is listed as “Not active” and the “%DPPH-scavenging ability (DPPH%), 60 min” value was “Not active”. Besides, the “%ABTS radical scavenging activity (ABTS%)” value in assay [1] was 21.39 ± 0.22%. In addition, the “percentage … (ΔA/A0, %)” value in the assay with CT DNA (setting [2]) was −3%. For the same compound, the “blue-/red-shift in λmax (Δλ, nm)” value in the assay on CT DNA (setting [3]) is on record as −4.5 nm. Also, the “DNA-binding constant Kb” value at CT DNA is 2.06e+06 M⁻¹.

Source of the values: article PMC12195967, “Cobalt(II) Complexes of 4′–Nitro–Fenamic Acid: Characterization and Biological Evaluation” (Molecules, 2025).
